According to the supplement of paper PMC10307832:

Legend:
Experiment in all cases: relative viability (nuclei count vs DMSO), 5 days (fraction); higher = more cells survive
[1] = compound: C1/C(=C\C2=CC=CS2)/C(=O)/C(=C/C3=CC=CS3)/C1
Procedure, shortened: (§1)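 A plate was accepted only when its control CV was below 25% and the cells had doubled at least once. Viability is defined from nuclear counts as treated wells divided by vehicle wells, with the median taken across plates. That median covers lung cancer cell lines grown in 1536-well plates, dosed by pinning at five √10-spaced library-drug concentrations, and counted in MetaXpress from 4× Hoechst images after 5 days.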

TPCA-1 = compound: C1=CC(=CC=C1C2=CC(=C(S2)NC(=O)N)C(=O)N)F [TPCA-1]
Procedure, shortened: as §1

Lestaurtinib = compound: C[C@]12O[C@H](C[C@]1(O)CO)n1c3ccccc3c3c4c(c5c6ccccc6n2c5c31)CNC4=O [Lestaurtinib]
Procedure, shortened: as §1

TPCA-1 + Crizotinib = compound: C1=CC(=CC=C1C2=CC(=C(S2)NC(=O)N)C(=O)N)F [TPCA-1] + C[C@@H](Oc1cc(-c2cnn(C3CCNCC3)c2)cnc1N)c1c(Cl)ccc(F)c1Cl [Crizotinib] (partner 1 µM)
Procedure, shortened: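 A single step with final 0.05% Triton X-100, 1% formaldehyde and 1 ug/ml Hoechst fixed the cells and stained nuclei 5 days after treatment. Lung cancer cell lines in 1536-well plates had been treated by pin tool the day after seeding with one drug alone or a fixed anchor-drug dose plus five library-drug doses (not always all listed) in √10 steps, and nuclei were counted on 4× images. Relative viability is the ratio of nuclei in treated wells to nuclei in vehicle wells, taken as the median of duplicate plates.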

Row | Cell Line | relative viability ([1]; 0.2 µM) | relative viability ([1]; 0.6325 µM) | relative viability ([1]; 2 µM) | relative viability ([1]; 6.325 µM) | relative viability ([1]; 20 µM) | relative viability (TPCA-1; 0.04 µM) | relative viability (TPCA-1; 0.1265 µM) | relative viability (TPCA-1; 0.4 µM) | relative viability (TPCA-1; 1.265 µM) | relative viability (TPCA-1; 4 µM) | relative viability (Lestaurtinib; 0.005 µM) | relative viability (Lestaurtinib; 0.01581 µM) | relative viability (Lestaurtinib; 0.05 µM) | relative viability (Lestaurtinib; 0.1581 µM) | relative viability (Lestaurtinib; 0.5 µM) | relative viability (TPCA-1 + Crizotinib; first compound 0.04 µM) | relative viability (TPCA-1 + Crizotinib; first compound 0.1265 µM) | relative viability (TPCA-1 + Crizotinib; first compound 0.4 µM) | relative viability (TPCA-1 + Crizotinib; first compound 1.265 µM) | relative viability (TPCA-1 + Crizotinib; first compound 4 µM)
1 | HCC-15 | 1.04 | 1.04 | 1.03 | 0.87 | 0.977 | 1.14 | 0.926 | 1.04 | 0.887 | 0.55 | 1.08 | 1.18 | 0.873 | 0.824 | 0.183 | 0.833 | 0.81 | 0.831 | 0.798 | 0.563
2 | HCC-44 | 1.02 | 1 | 0.989 | 0.898 | 0.962 | 1.01 | 0.933 | 0.965 | 0.643 | 0.901 | 0.923 | 1.16 | 0.941 | 1.11 | 0.845 | 0.798 | 0.708 | 0.76 | 0.681 | 0.644
3 | HCC-78 | 0.972 | 0.927 | 1.25 | 0.823 | 0.908 | 0.972 | 0.834 | 0.892 | 0.788 | 0.391 | 0.823 | 0.943 | 0.547 | 0.577 | 0.44 | 0.362 | 0.341 | 0.345 | 0.338 | 0.307
4 | HCC-366 | 1.02 | 1.05 | 1.1 | 0.827 | 1.04 | 1.03 | 0.995 | 1.01 | 1.01 | 0.152 | 1.06 | 1.01 | 1.02 | 1.01 | 0.829 | 0.562 | 0.644 | 0.588 | 0.472 | 0.258
5 | HCC-827 | 1.05 | 1.04 | 1.05 | 0.956 | 1.04 | 1.12 | 0.988 | 1.05 | 0.961 | 0.813 | 1.01 | 1.07 | 1.03 | 0.892 | 0.664 | 0.948 | 0.924 | 0.899 | 0.83 | 0.567
6 | HOP-62 | 1.1 | 1.02 | 1.01 | 0.928 | 1.01 | 1.02 | 0.97 | 0.956 | 0.943 | 0.852 | 1.02 | 1.11 | 0.921 | 1.12 | 0.452 | 0.974 | 0.865 | 0.974 | 1.05 | 0.641
7 | IA-LM | 1.04 | 1.01 | 0.905 | 0.91 | 0.94 | 1.1 | 0.923 | 0.963 | 0.812 | 0.903 | 1.11 | 1.42 | 1.28 | 1.21 | 0.557 | 0.767 | 0.762 | 0.985 | 0.667 | 0.657
8 | LC-2-ad | 1.02 | 1.04 | 1.07 | 0.868 | 0.958 | 1.09 | 0.902 | 1.01 | 0.901 | 0.377 | 1.01 | 1.15 | 0.757 | 0.54 | 0.301 | 0.441 | 0.427 | 0.464 | 0.413 | 0.263
9 | LCLC-97TM1 | 1.07 | 0.966 | 1.2 | 0.868 | 0.852 | 1.17 | 0.886 | 0.994 | 0.613 | 0.538 | 0.702 | 1.15 | 0.739 | 0.398 | 0.267 | 0.347 | 0.325 | 0.568 | 0.28 | 0.15
10 | LCLC-103H | 1.04 | 1.02 | 1.09 | 0.87 | 0.986 | 1.1 | 0.933 | 1.06 | 0.941 | 1.02 | 1.1 | 1.08 | 0.937 | 0.693 | 0.519 | 1.12 | 1.03 | 0.96 | 1.03 | 1.03
11 | LK-2 | 1.02 | 1 | 1.1 | 1.06 | 0.966 | 1.24 | 0.8 | 0.993 | 0.982 | 0.503 | 1.24 | 1.06 | 0.872 | 0.651 | 0.279 | 0.22 | 0.229 | 0.289 | 0.206 | 0.313
12 | NCI-H522 | 1.12 | 0.967 | 1.06 | 0.978 | 0.922 | 0.928 | 0.916 | 1.18 | 1.07 | 0.844 | 1.03 | 0.963 | 0.877 | 0.877 | 0.604 | – | – | – | – | –
13 | NCI-H1395 | 0.912 | 0.876 | 1.11 | 0.833 | 0.945 | 1.01 | 0.916 | 1.02 | 0.811 | 0.703 | 0.886 | 1.04 | 0.759 | 0.759 | 0.462 | – | – | – | – | –
14 | NCI-H1623 | 0.977 | 0.865 | 1.1 | 0.903 | 0.911 | 1.13 | 0.879 | 0.962 | 1.01 | 0.763 | 0.978 | 0.962 | 0.931 | 0.884 | 0.813 | – | – | – | – | –
15 | NCI-H1648 | 0.934 | 0.875 | 0.876 | 0.728 | 0.739 | 1.1 | 0.788 | 1.03 | 0.824 | 0.993 | 0.688 | 0.993 | 0.691 | 1.17 | 0.879 | – | – | – | – | –
16 | NCI-H1793 | 0.962 | 0.953 | 1.1 | 0.856 | 0.87 | 1.1 | 0.718 | 1.08 | 0.954 | 0.279 | 0.949 | 0.986 | 0.657 | 0.828 | 0.723 | – | – | – | – | –
17 | NCI-H2342 | 1.01 | 0.951 | 1.06 | 0.829 | 0.954 | 1 | 0.961 | 1.05 | 0.956 | 0.919 | 0.947 | 1.04 | 0.863 | 1.09 | 1.03 | – | – | – | – | –
18 | SW 900 | 0.9 | 0.947 | 0.87 | 0.874 | 0.864 | 0.663 | 0.719 | 0.922 | 0.775 | 0.654 | 0.916 | 1.08 | 0.966 | 1.06 | 0.885 | – | – | – | – | –
